Patent publication US10525106B2, “Angiopoietin-based interventions for treating cerebral malaria” (Regeneron Pharmaceuticals, Inc., priority 2013, dated 2020)

Tests used:
[1] = test system: Plasmodium berghei ANKA (PbA)-induced experimental cerebral malaria; experiment: Survival of mice infected with PbA (Kaplan Meier, log rank test); format: in vivo; details: C57Bl/6 mice, 10 mg/kg artesunate Day 5 sc, alone (Example 4)
Excerpt: (§1) Cryopreserved Plasmodium berghei ANKA (PbA; MR4, Manassas, Va.) was passaged through naïve C57Bl/6 mice. For the experiment, infection was initiated in C57Bl/6 and BALB/c mice by intraperitoneal (ip) injection of 1×10^6 freshly-isolated parasitized erythrocytes (PE) obtained from donor passage mice. Parasitemia was monitored by thin-blood smear stained with modified Geimsa stain (Protocol Hema3 Stain Set, Sigma, Oakville, ON) by counting at least 1500 erythrocytes. The infected mice were monitored for survival, neurological impairment, vascular leakage, parasite burden, and levels of angiogenic factors and markers of endothelial activation.
Post-infection survival of mice was plotted as Kaplan Meier curves using a log rank test for comparison. Quantitative assessment of ECM-associated neurological impairment (impaired coordination and motor performance) was performed daily using the 10 parameter Rapid Murine Coma and Behavioral Score (RMCBS), as previously described by Carroll R W, et al. 2010 in PLoS ONE 5: e13124. […] Total scores for each mouse were calculated and provided as a percentage of the total possible score. […]
Statistical analysis was performed using GraphPad Prism version 4.00 (San Diego, Calif.). Post-infection survival of mice was plotted as Kaplan Meier curves and assessed using log-rank test. […]

[2] = test system: Plasmodium berghei ANKA (PbA); experiment: Parasitemia by thin-blood smear; format: in vivo; details: C57Bl/6 mice, 10 mg/kg artesunate Day 5 sc (Example 4)
Excerpt: as §1

`C[C@H]1[C@H](OC(=O)CCC(=O)O)O[C@@H]2O[C@@]3(C)CC[C@H]4[C@H](C)CC[C@@H]1[C@@]24OO3` [artesunate, reference compound] was tested, and the “survival by Day 8 post infection” value [1] was “less than 60%”, the “treated mice that died of ECM” value [1] was 41.7% and the “parasitemia (parasite burden diminished to pre-ECM levels)” value [2] was under 2%.
